Measurements taken from patent US6262073A, “Pharmaceutical methods of use of 5-substituted and 5,5 disubstituted-3,4-dihydroxy-2(5H)-furanones” (Oxis International Inc., priority 2000, dated 2001).

Key:
Format in all cases: biochemical
[1] = target: T1, 5-Lipoxygenase (crude enzyme preparation from rat basophilic leukemia cells, RBL-1) (Rattus norvegicus, UniProt P12527); assay: 5-Lipoxygenase screen (5-LO), 5-HETE by RIA; details: for inhibition at 30 µM: read-out: 5-LO percent inhibition; for inhibition at 1 µM: read-out: Percent inhibition of 5-LO, test conc. 1 μM (Table II)
T1 construct: crude enzyme preparation from rat basophilic leukemia cells (RBL-1); endogenous in cells; host or cells: rat basophilic leukemia cells (RBL-1)
T1 sequence (P12527 1-673): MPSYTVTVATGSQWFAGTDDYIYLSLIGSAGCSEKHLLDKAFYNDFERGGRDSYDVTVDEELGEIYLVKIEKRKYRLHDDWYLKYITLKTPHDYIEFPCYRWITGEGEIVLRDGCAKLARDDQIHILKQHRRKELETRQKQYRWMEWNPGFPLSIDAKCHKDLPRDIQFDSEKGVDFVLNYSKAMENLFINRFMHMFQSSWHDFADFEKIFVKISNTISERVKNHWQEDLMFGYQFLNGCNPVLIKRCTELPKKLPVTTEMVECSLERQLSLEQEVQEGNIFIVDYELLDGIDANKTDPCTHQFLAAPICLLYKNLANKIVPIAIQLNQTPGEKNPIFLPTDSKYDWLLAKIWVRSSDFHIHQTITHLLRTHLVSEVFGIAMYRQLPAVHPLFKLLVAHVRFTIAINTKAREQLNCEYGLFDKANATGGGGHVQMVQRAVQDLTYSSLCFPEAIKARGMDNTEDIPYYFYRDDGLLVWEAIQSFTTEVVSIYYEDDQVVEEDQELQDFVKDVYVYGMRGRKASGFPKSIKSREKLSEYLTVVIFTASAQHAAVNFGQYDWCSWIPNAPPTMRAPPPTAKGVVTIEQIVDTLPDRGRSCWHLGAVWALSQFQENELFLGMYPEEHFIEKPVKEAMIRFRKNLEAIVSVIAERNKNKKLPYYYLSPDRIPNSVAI
Protocol: (§1) The compounds of the invention were screened for their anti-inflammatory activity using a series of in vitro tests the details of which are given below. The activity of various compounds against 5-lipoxygenase, cycloxygenase-1, cycloxygenase-2 and lipid peroxidase was evaluated. Results of the screening procedures are included in TABLE I, and the activity against 5-lipoxygenase at a test concentration of 1 μM in Table II.
5-Lipoxygenase catalyzes the oxidative metabolism of arachidonic acid to […] (5-HETE), the initial reaction leading to the formation of the leukotrienes. Briefly, the testing procedure utilizes a crude enzyme preparation from rat basophilic leukemia cells (RBL-1) according to the methods of T. Shimuzu et al. Pro. […] Test compounds are pre-incubated with the enzyme preparation for 5 minutes at room temperature and the reaction is initiated by the addition of arachidonic acid. Following an 8 minute incubation at room temperature, the reaction is terminated by the addition of citric acid and concentrations of 5-HETE are determined by RIA. Compounds are screened at 30 μM.

[2] = target: T2, Cyclooxygenase-1 (cyclooxygenase from ram seminal vesicles) (Ovis aries, UniProt P05979); assay: Cyclooxygenase-1 screen (COX-1); details: 300 μM
T2 construct: cyclooxygenase from ram seminal vesicles; from tissue; host or cells: ram seminal vesicles
T2 sequence (P05979 25-600): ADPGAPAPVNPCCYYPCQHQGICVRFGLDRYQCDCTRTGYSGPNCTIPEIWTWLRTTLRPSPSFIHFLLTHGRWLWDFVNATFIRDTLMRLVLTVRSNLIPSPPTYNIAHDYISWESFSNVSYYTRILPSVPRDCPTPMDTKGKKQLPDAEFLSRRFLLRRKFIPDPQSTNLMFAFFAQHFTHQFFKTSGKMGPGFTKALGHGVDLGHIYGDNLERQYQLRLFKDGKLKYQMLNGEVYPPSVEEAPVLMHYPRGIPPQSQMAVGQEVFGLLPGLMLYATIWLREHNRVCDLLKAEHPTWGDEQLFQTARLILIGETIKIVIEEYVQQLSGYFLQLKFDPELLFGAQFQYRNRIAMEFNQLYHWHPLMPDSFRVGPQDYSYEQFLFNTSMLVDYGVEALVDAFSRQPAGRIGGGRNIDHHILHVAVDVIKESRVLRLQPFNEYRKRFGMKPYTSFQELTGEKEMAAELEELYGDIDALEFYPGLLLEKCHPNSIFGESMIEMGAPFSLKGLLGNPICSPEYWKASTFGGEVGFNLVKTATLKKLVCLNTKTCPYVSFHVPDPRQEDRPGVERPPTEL
Protocol: as §1
Cyclooxygenase-1 is involved in the formation of prostaglandins and thromboxane via the oxidative metabolism of arachidonic acid. Briefly, cyclooxygenase from ram seminal vesicles is incubated with arachidonic acid (100 μm) for 2 minutes at 37° C. in the presence or absence of test compounds according to the methods of A. T. Evans et al., Biochem. Pharm. 36:2035-2037(1987) and R. Boopathy et al., Biochem J. 239:371-377 (1968). The assay is terminated by the addition of trichioroacetic acid and cyclooxygenase activity is determined by reading the absorbance at 530 nm. […]

[3] = target: T3, Cyclooxygenase-2 (prostaglandin H synthetase-2) from sheep placenta (Ovis aries, UniProt P79208); assay: Cyclooxygenase-2 screen (COX-2); details: read-out: COX-2 percent inhibition
T3 construct: cyclooxygenase-2 from sheep placenta; from tissue; host or cells: sheep placenta
T3 sequence (P79208 17-603): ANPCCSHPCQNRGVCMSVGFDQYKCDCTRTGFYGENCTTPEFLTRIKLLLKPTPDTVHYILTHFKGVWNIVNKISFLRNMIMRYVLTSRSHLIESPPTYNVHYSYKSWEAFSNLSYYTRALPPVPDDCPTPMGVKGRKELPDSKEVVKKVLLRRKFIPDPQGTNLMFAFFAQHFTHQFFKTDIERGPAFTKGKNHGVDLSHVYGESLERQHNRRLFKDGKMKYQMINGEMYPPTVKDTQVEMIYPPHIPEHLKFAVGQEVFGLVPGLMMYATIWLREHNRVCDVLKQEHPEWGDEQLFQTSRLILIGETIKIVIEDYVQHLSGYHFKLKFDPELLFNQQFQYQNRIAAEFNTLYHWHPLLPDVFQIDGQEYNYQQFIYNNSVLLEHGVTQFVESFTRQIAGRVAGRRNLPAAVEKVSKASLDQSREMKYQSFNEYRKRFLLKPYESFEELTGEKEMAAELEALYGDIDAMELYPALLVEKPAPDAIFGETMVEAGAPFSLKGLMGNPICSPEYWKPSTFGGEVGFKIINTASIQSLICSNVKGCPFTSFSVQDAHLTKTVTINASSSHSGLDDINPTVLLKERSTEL
Protocol: as §1
Cyclooxygenase-2, also known as prostaglandin H synthetase-2, catalyzes the rate- limiting step in the synthesis of inflammatory prostaglandins. In this reaction cyclooxygenase-2 catalyzes the oxygenation of unesterified precursors to form cyclic endoperoxide derivatives, including prostaglandin H. Briefly, cyclooxygenase-2 from sheep placenta, 14 μg/assay tube, is incubated with arachidonic acid (500 μM) for 1.5 minutes at 27° C. in the absence or presence of test compounds according to the methods of A. T. Evans, et al., Biochem Pharm. […] Res. Comm. […] Compounds are screened at 300 μM.

[4] = tested on: Lipid peroxidation (rat liver microsomes); assay: Lipid peroxidation screen (LPO), CCl4-induced, liver microsomes; details: for LPO percent inhibition: 300 μM
Protocol: as §1
Lipid peroxidation is a consequence of various stimuli, including reactive free radicals. Polyunsaturated fatty acids associated with plasma membranes are degraded due to enzymatic induction by reactive agents such as CCl4, leading to cellular damage. Briefly, microsomes are prepared from rat livers and the protein concentration is determined according to the method of D. Mansuy et al., Biochem. Biophys. Res. Comm. 135:1015-1021(1986). A reaction mixture consisting of 2 mg of the microsomal preparation, an NADPH generating system, 20 mM CCl4 and test compound are incubated for 12 minutes at 37° C. The reaction is terminated by the addition of a mixture of thiobarbituric acid and trichloroacetic acid. The absorbance is read at 535 nm and is proportional to the concentration of malondialdehyde. Compounds are screened at 300 μM.

SMILES	inhibition at 30 µM [1] [%]	COX-1 percent inhibition [2] [%]	inhibition at 300 µM [3] [%]	LPO percent inhibition [4] [%]	inhibition at 1 µM [1] [%]	IC50 ([4]; reference compound under screen conditions) [µM]
CC1(c2ccccc2)OC(=O)C(O)=C1O (centres unmarked) [Example 1, 3,4-Dihydroxy-5-methyl-5-phenyl-2(5H)-furanone]	58	-12	3	63		
CC(C)Cc1ccc(C2(C)OC(=O)C(O)=C2O)cc1 (centres unmarked) [Example 3, 3,4-Dihydroxy-5-methyl-5-[4-(2-methylpropyl)phenyl]-2(5H)-furanone]	99	2	-4	78		
CC1(c2ccc(Cl)cc2)OC(=O)C(O)=C1O (centres unmarked) [Example 4, 5-(4-Chlorophenyl)-3,4-dihydroxy-5-methyl-2(5H)-furanone]	2	2	24	54		
O=C1OC(CCOc2ccc(Oc3ccccc3)cc2)C(O)=C1O (centres unmarked) [Example 15, 3,4-Dihydroxy-5-[2-(4-phenoxy)phenoxyethyl]-2(5H)-furanone]	100	9	-4	-5	52	
O=C1OC(CCOc2ccc3oc(-c4ccccc4)cc(=O)c3c2)C(O)=C1O (centres unmarked) [Example 16, 3,4-Dihydroxy-5-[2-(flavone-6-oxy)ethyl]-2(5H)-furanone]	100	17	2	76	54	
O=C1OC(CCOc2ccc3oc4ccccc4c3c2)C(O)=C1O (centres unmarked) [Example 17, 5-[2-(Dibenzofuran-2-oxy)ethyl]-3,4-dihydroxy-2(5H)-furanone]	99	17	21	74	60	
O=C1OC(CCOc2cccc3ccccc23)C(O)=C1O (centres unmarked) [Example 18, 3,4-Dihydroxy-5-[2-(1-naphthoxy)ethyl]-2(5H)-furanone]	99	11	-12	71	49	
O=C1OC(CCN2C(=O)c3cccc4cccc(c34)C2=O)C(O)=C1O (centres unmarked) [Example 19, 3,4-Dihydroxy-5-[2-(1,8-naphthalimide)-N-ethyl]-2(5H)-furanone]	86	9	2	68		
O=C1OC(CCN2c3cccc4cccc(c34)S2(=O)=O)C(O)=C1O (centres unmarked) [Example 20, 3,4-Dihydroxy-5-[2-(1,8-naphthosultam)-N-ethyl]-2(5H)-furanone]	91	-15	13	61	38	
O=C1OC(CCOc2ccccc2Cc2ccccc2)C(O)=C1O (centres unmarked) [Example 21, 3,4-Dihydroxy-5-[2-(diphenylmethane-2-oxy)ethyl]-2(5H)-furanone]	101	12	10	68	62	
O=C1OC(CCOc2ccc(-c3ccccc3)cc2)C(O)=C1O (centres unmarked) [Example 22, 5-[2-((1,1'-Biphenyl)-4-oxy)ethyl]-3,4-dihydroxy-2(5H)-furanone]	99	18	10	74	55	
O=C1OC(CCOc2ccc3ccccc3n2)C(O)=C1O (centres unmarked) [Example 23, 3,4-Dihydroxy-5-[2-(quinoline-2-oxy)ethyl]-2(5H)-furanone]	93		-2			
O=C1OC(CCSc2cccc3ccccc23)C(O)=C1O (centres unmarked) [Example 25, 3,4-Dihydroxy-5-[2-(naphthyl-1-thio)ethyl]-2(5H)-furanone]	102	6	19	74	56	
O=C1OC(CCSc2ccc3ccccc3c2)C(O)=C1O (centres unmarked) [Example 26, 3,4-Dihydroxy-5-[2-(naphthyl-2-thio)ethyl]-2(5H)-furanone]	101	12	12	77	54	
O=C1OC(CCC#Cc2ccccc2)C(O)=C1O (centres unmarked) [Example 27, 3,4-Dihydroxy-5-[(4-phenyl)-3-butynyl]-2(5H)-furanone]	42	5	20	59		
Cc1c(C)c2c(c(C)c1O)CCC(C)(CCCC(C)CCCC(C)CCCC(C)C)O2 (stereo not drawn) [alpha-tocopherol, reference compound]						280
